According to patent US9682931B2, “Aryloyl(oxy or amino)pentafluorosulfanylbenzene compound, pharmaceutically acceptable salt thereof, and prodrugs thereof” (UBE INDUSTRIES, LTD., priority 2013, dated 2017):
Values after ≈ are worked out from the molar mass of the structure shown.

Legend:
Format in all cases: cell-based
A549 (lung cancer) = assay: Evaluation of anticancer action, cell proliferation inhibition (WST-8), A549; details: Homo sapiens, A549, about 72 hours
From the text: (§1) The cell proliferation inhibitory effects of a test substance (Compound 3) on various types of cancer cells were examined.
(§2) 1. Measuring Reagent and Analysis Software
(§3) WST-8 Kit (Cat. No. 260-96165 or 260-96162; manufactured by Kishida Chemical Co., Ltd.) for counting cell number
(§4) Software for graph making and measurement of GI50 value: XLfit 5.2 (ID Business Solutions Ltd.)
(§5) 2. Cells and Culture Conditions
(§6) Five types of cells and medium (the following Table) were used. The cells were obtained from the Research Resource Bank of the Human Sciences Foundation.
(§7) On the day when a sample was to be added, the sample was weighed and a medium for each type of cells was added so as to be 500 μg/mL. Sonication was performed while warming at 37° C. for 60 minutes to be dissolved. Then, filtration was performed by a 0.22 m-filter. The 500 μg/mL-solution was diluted with the medium for each type of cells to prepare 200 μg/mL, 60 μg/mL, 20 μg/mL, 6 μg/mL, 2 μg/mL, 0.6 μg/mL and 0.2 μg/mL solutions, which were specified as two-fold concentration test solutions (the final concentrations of the test substance were 250 µg/mL, 100 μg/mL, 30 μg/mL, 10 μg/mL, 3 μg/mL, 1 μg/mL, 0.3 μg/mL, […], respectively). […]
(§8) (8) Absorbance values at 450 nm and 650 nm were measured to calculate O.D. 450 and O.D. 650. […]
(§9) ODdrug-exposed wells: absorbance of a well containing a sample […]

MKN1 (stomach cancer) = assay: Evaluation of anticancer action, cell proliferation inhibition (WST-8), MKN1; details: Homo sapiens, MKN-1, MKN1, about 72 hours
From the text: as §1, §2, §3, §4, §5, §6, §7, §8, §9

MCF-7 (breast cancer) = assay: Evaluation of anticancer action, cell proliferation inhibition (WST-8), MCF-7; details: Homo sapiens, MCF7, MCF-7, about 72 hours
From the text: as §1, §2, §3, §4, §5, §6, §7, §8, §9

O=C(Nc1ccc(S(F)(F)(F)(F)F)cc1)c1cc(O)c(O)c(O)c1 [Compound 3, 4-(3,4,5-trihydroxybenzoylamino)pentafluorosulfanylbenzene]
GI50 (A549 (lung cancer)): 13.3 µg/mL (≈ 35.8 µM) | GI50 (MKN1 (stomach cancer)): 5.1 µg/mL (≈ 13.7 µM) | GI50 (MCF-7 (breast cancer)): 13.6 µg/mL (≈ 36.6 µM)
